# Experimental data reported in ChEMBL document CHEMBL3351965, “Taccalonolide microtubule stabilizers” (Bioorg Med Chem, 2014).
# Assays:
# HeLa = assay: Antiproliferative activity against human HeLa cells by SRB assay; assay type: functional, cell-based
# [1] = Half life in phosphate buffer saline; assay type: physicochemical; conditions: phosphate buffered saline
IC50 (HeLa) [µM],Structure (SMILES),half-life [1] [h]
0.73,CC(=O)O[C@H]1[C@@H]2[C@H]([C@H](C)C=C3OC(=O)[C@@](C)(O)[C@@]32C)[C@]2(C)[C@@H]1C1=C(O)C(=O)[C@H]3C[C@@H]4O[C@@H]4[C@H](OC(C)=O)[C@]3(C)[C@H]1[C@H](OC(C)=O)[C@@H]2OC(C)=O,
5,CC(=O)O[C@@H]1[C@H]2[C@H]3[C@H]([C@H](OC(C)=O)[C@H](OC(C)=O)[C@]2(C)[C@@H]2[C@@H]1[C@]1(C)C(=C[C@H]2C)OC(=O)[C@@]1(C)O)[C@]1(C)[C@H](C[C@@H]2O[C@@H]2[C@@H]1OC(C)=O)C(=O)C3(O)O,
,CC(=O)O[C@@H]1[C@H]2[C@H]3[C@H]([C@H](OC(C)=O)[C@H](OC(C)=O)[C@]2(C)[C@H]2[C@H](C)[C@@H]4O[C@@]45OC(=O)[C@@](C)(O)[C@]5(C)[C@H]12)[C@]1(C)[C@H](C[C@@H]2O[C@@H]2[C@@H]1OC(C)=O)C(=O)[C@@H]3O,9
3.4,CC(=O)O[C@@H]1[C@H]2[C@@H]3C(=O)C(O)=C4C[C@@H]5O[C@@H]5[C@H](OC(C)=O)[C@]4(C)[C@H]3[C@H](OC(C)=O)[C@H](OC(C)=O)[C@]2(C)[C@@H]2[C@@H]1[C@]1(C)C(=C[C@H]2C)OC(=O)[C@@]1(C)O,

Structure (SMILES),IC50 (HeLa) [µM],half-life [1] [h]
CC(=O)O[C@@H]1[C@H]2[C@H]3[C@H]([C@H](OC(C)=O)[C@H](OC(C)=O)[C@]2(C)[C@@H]2[C@@H]1[C@]1(C)C(=C[C@@]2(C)OO)OC(=O)[C@@]1(C)O)[C@]1(C)[C@H](C[C@@H]2O[C@@H]2[C@@H]1OC(C)=O)C(=O)[C@@H]3O,> 50,
